Reference: patent publication US8569311B2, “Pyridyl piperidine orexin receptor antagonists” (Merch Sharp & Dohme Corp., priority 2007, dated 2013)

Tests used:
OX1R = OX1R (Rattus norvegicus, UniProt P56718); assay: radioligand binding assay, OX1 receptor; settings: membranes prepared from CHO cells expressing the OX1 receptor
Procedure: (§1) The utility of the compounds in accordance with the present invention as orexin receptor OX1R and/or OX2R antagonists may be readily determined without undue experimentation by methodology well known in the art, including the “FLIPR Ca^2+ Flux Assay” (Okumura et al., Biochem. Biophys. Res. Comm 280:976-981, 2001). In a typical experiment the OX1 and OX2 receptor antagonistic activity of the compounds of the present invention was determined in accordance with the following experimental method. For intracellular calcium measurements, Chinese hamster ovary (CHO) cells expressing the rat orexin-1 receptor or the human orexin-2 receptor, are grown in Iscove's modified DMEM containing 2 mM L-glutamine, […], 1% hypoxanthine-thymidine supplement, 100 U/ml penicillin, 100 ug/ml streptomycin and 10% heat-inactivated fetal calf serum (FCS). The cells are seeded at 20,000 cells/well into Becton-Dickinson black 384-well clear bottom sterile plates coated with poly-D-lysine. All reagents were from GIBCO-Invitrogen Corp. The seeded plates are incubated overnight at 37° C. and 5% CO2. Ala-6,12 human orexin-A as the agonist is prepared as a 1 mM stock solution in 1% bovine serum albumin (BSA) and diluted in assay buffer (HBSS containing 20 mM HEPES, 0.1% BSA and 2.5 mM probenecid, pH7.4) for use in the assay at a final concentration of 70 pM. Test compounds are prepared as 10 mM stock solution in DMSO, then diluted in 384-well plates, first in DMSO, then assay buffer. On the day of the assay, cells are washed 3 times with 100 ul assay buffer and then incubated for 60 min (37° C., 5% CO2) in 60 ul assay buffer containing 1 uM Fluo-4AM ester, 0.02% pluronic acid, and 1% BSA. The dye loading solution is then aspirated and cells are washed 3 times with 100 ul assay buffer. 30 ul of that same buffer is left in each well. Within the Fluorescent Imaging Plate Reader (FLIPR, Molecular Devices), test compounds are added to the plate in a volume of 25 ul, incubated for 5 min and finally 25 ul of agonist is added. Fluorescence is measured for each well at 1 second intervals for 5 minutes and the height of each fluorescence peak is compared to the height of the fluorescence peak induced by 70 pM Ala-6,12 orexin-A with buffer in place of antagonist. For each antagonist, IC50 value (the concentration of compound needed to inhibit 50% of the agonist response) is determined. Alternatively, compound potency can be assessed by a radioligand binding assay (described in Bergman et. al. Bioorg. Med. Chem. Lett. 2008, 18, 1425-1430) in which the inhibition constant (Ki) is determined in membranes prepared from CHO cells expressing either the OX1 or OX2 receptor. The intrinsic orexin receptor antagonist activity of a compound which may be used in the present invention may be determined by these assays.

OX2R = OX2R (Homo sapiens (Human), UniProt O43614); assay: radioligand binding assay, OX2 receptor; settings: membranes prepared from CHO cells expressing the OX2 receptor
Chain of OX2R (O43614 whole entry): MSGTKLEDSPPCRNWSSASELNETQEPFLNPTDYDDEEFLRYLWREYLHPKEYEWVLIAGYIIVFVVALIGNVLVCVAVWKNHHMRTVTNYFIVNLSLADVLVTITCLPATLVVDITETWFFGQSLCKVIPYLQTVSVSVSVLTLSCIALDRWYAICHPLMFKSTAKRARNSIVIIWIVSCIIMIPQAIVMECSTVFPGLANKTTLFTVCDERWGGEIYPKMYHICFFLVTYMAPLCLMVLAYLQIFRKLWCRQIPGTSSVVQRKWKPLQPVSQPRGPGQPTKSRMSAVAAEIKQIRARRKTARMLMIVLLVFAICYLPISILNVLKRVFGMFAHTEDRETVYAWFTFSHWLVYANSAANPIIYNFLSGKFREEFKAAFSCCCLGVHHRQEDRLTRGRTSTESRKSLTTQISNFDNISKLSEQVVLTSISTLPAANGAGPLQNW
Procedure: as §1

Chain of OX1R (P56718 whole entry, looked up): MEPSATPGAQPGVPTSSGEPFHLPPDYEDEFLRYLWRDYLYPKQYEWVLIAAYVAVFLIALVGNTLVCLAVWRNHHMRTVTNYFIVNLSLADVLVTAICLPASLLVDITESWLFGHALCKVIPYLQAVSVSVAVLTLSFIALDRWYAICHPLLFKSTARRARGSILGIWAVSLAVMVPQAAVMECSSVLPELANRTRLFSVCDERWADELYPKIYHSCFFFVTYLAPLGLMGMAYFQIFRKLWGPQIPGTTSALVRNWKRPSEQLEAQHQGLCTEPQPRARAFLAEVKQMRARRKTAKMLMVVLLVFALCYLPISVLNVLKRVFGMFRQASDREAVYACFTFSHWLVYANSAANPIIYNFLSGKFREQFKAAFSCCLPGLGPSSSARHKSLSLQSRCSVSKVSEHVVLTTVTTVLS

Ki (OX1R) [nM] | Ki (OX2R) [nM] | Structure (SMILES)
1.8 | 0.24 | Cc1ccc(-c2nccs2)c(C(=O)N2C[C@H](COc3ccc(F)cn3)CC[C@H]2C)c1 [Compound 1-1, 5-fluoro-2-({(3R,6R)-6-methyl-1-[5-methyl-2-(1,3-thiazol-2-yl)benzoyl]piperidin 3-yl}methoxy)pyridine]
12 | 0.37 | C[C@@H]1CC[C@@H](COc2ccc(F)cn2)CN1C(=O)c1ccccc1-n1nccn1 [Compound 1-4, 5-fluoro-2-({(3R,6R)-6-methyl-1-[2-(2H-1,2,3-triazol-2-yl)benzoyl]piperidin-3-yl}methoxy)pyridine]
6.8 | 0.5 | C[C@@H]1CC[C@@H](COc2ccc(F)cn2)CN1C(=O)c1cc(F)ccc1-n1nccn1 [Compound 1-8, 5-fluoro-2-({(3R,6R)-1-[5-fluoro-2-(2H-1,2,3-triazol-2-yl)benzoyl]-6-methylpiperidin-3-yl}methoxy)pyridine]
0.71 | 0.08 | Cc1ccc(-c2ccccc2)c(C(=O)N2C[C@H](COc3ccc(F)cn3)CC[C@H]2C)c1 [Compound 1-10, 5-fluoro-2-({(3R,6R)-6-methyl-1-[(4-methylbiphenyl-2-yl)carbonyl]piperidin-3-yl}methoxy)pyridine]
3.2 | 0.35 | Cc1ccc(-c2ccccn2)c(C(=O)N2C[C@H](COc3ccc(F)cn3)CC[C@H]2C)c1 [Compound 1-15, 5-fluoro-2-{[(3R,6R)-6-methyl-1-(5-methyl-2-pyridin-2-ylbenzoyl)piperidin-3-yl}methoxy}pyridine]
10 | 0.53 | C[C@@H]1CC[C@@H](COc2ccc(F)cn2)CN1C(=O)c1cc(F)ccc1-c1ncccn1 [Compound 1-19, 2-{4-fluoro-2-[((2R,5R)-5-{[(5-fluoropyridin-2-yl)oxy]methyl}-2-methylpiperidin-1-yl)carbonyl]phenyl}pyrimidine]
7.1 | 0.48 | Cc1ccc(-c2cn[nH]c2)c(C(=O)N2C[C@H](COc3ccc(F)cn3)CC[C@H]2C)c1 [Compound 1-21, 5-fluoro-2-({(3R,6R)-6-methyl-1-[5-methyl-2-(1H-pyrazol-4-yl)benzoyl]piperidin-3-yl}methoxy)pyridine]
36 | 1.7 | CCOc1ccccc1C(=O)N1C[C@H](COc2ccc(F)cn2)CC[C@H]1C [Compound 1-24, 2-{[(3R,6R)-1-(2-ethoxybenzoyl)-6-methylpiperidin-3-yl]methoxy}-5-fluoropyridine]
75 | 10 | C[C@@H]1CC[C@@H](COc2ccc(F)cn2)CN1C(=O)c1cccc2cc[nH]c12 [Compound 1-27, 7-[((2R,5R)-5-{[(5-fluoropyridin-2-yl)oxy]methyl}-2-methylpiperidin-1-yl)carbonyl]-1H-indole]
17 | 0.67 | C[C@@H]1CC[C@@H](COc2ccc(F)cn2)CN1C(=O)c1ccccc1-c1ncccn1 [Compound 1-28, 2-{2-[((2R,5R)-5-{[(5-fluoropyridin-2-yl)oxy]methyl}-2-methylpiperidin-1-yl)carbonyl]phenyl}pyrimidine]
8.2 | 0.68 | C[C@@H]1CC[C@@H](COc2ccc(F)cn2)CN1C(=O)c1c(F)cccc1-c1ncccn1 [Compound 1-34, 2-{3-fluoro-2-[((2R,5R)-5-{[(5-fluoropyridin-2-yl)oxy]methyl}-2-methylpiperidin-1-yl)carbonyl]phenyl}pyrimidine]
55 | 1.5 | C[C@@H]1CC[C@@H](COc2ccc(F)cn2)CN1C(=O)c1ccccc1-n1cccn1 [Compound 1-37, 5-fluoro-2-({(3R,6R)-6-methyl-1-[2-(1H-pyrazol-1-yl)benzoyl]piperidin-3-yl}methoxy)pyridine]
86 | 1.9 | C[C@@H]1CC[C@@H](COc2ccc(F)cn2)CN1C(=O)c1ncccc1-c1ccccc1 [Compound 1-38, 2-[((2R,5R)-5-{[(5-fluoropyridin-2-yl)oxy]methyl}-2-methylpiperidin-1-yl)carbonyl]-3-phenylpyridine]
64 | 3.8 | C[C@@H]1CC[C@@H](COc2ccc(Br)nc2)CN1C(=O)c1ccccc1-n1nccn1 [Compound 1-42, 2-bromo-5-({(3R,6R)-6-mcthyl-1-[2-(2H-1,2,3-triazol-2-yl)benzoyl]piperidin-3-yl}methoxy)pyridine]
140 | 22 | C[C@@H]1CC[C@@H](COc2ccnc(Cl)c2)CN1C(=O)c1ccccc1-n1nccn1 [Compound 1-43, 2-chloro-4-({(3R,6R)-6-methyl-1-[2-(2H-1,2,3-triazol-2-yl)benzoyl]piperidin-3-yl}methoxy)pyridine]
96 | 29 | Cc1ccc(-n2nccn2)c(C(=O)N2CCCC(COc3ccc(F)nc3)C2)c1 (stereo not drawn) [Compound 2-1]
1 | 0.24 | Cc1ccc(-n2nccn2)c(C(=O)N2C[C@H](COc3ccc(F)cn3)CC[C@H]2C)c1 [Compound A-9, 5-Fluoro-2-({(3R,6R)-6-methyl-1-[5-methyl-2-(2H-1,2,3-triazol-2-yl)benzoyl]piperidin-3-yl}methoxy)pyridine]
3.3 | 0.54 | Cc1ccc(-c2cnccn2)c(C(=O)N2C[C@H](COc3ccc(F)cn3)CC[C@H]2C)c1 [Compound B-3, 2-{2-[((2R,5R)-5-{[(5-Fluoropyridin-2-yl)oxy]methyl}-2-methylpiperidin-1-yl)carbonyl]-4-methylphenyl}pyrazine]
22 | 0.67 | Cc1cccc(OC[C@@H]2CC[C@@H](C)N(C(=O)c3ccccc3-n3nccn3)C2)n1 [Compound C-4, 2-Methyl-6-({(3R,6R)-6-methyl-1-[2-(2H-1,2,3-triazol-2-yl)benzoyl]piperidin-3-yl}methoxy)pyridine]
2.9 | 0.31 | Cc1ccc(-c2ncccn2)c(C(=O)N2C[C@H](COc3ccc(F)cn3)CC[C@H]2C)c1 [Compound E-5, 2-{2-[((2R,5R)-5-{[(5-Fluoropyridin-2-yl)oxy]methyl}-2-methylpiperidin-1-yl)carbonyl]-4-methylphenyl}pyrimidine]
260 | 410 | C[C@@H]1CC[C@@H](COc2ccc(F)cn2)CN1C(=O)c1cc(C(=O)O)ccc1-n1nccn1 [Compound F-4, 3-[((2R,5R)-5-{[(5-Fluoropyridin-2-yl)oxy]methyl}-2-methylpiperidin-1-yl)carbonyl]-4-(2H-1,2,3-triazol-2-yl)benzoic acid]
14 | 1.7 | C[C@@H]1CC[C@@H](COc2ccc(F)cn2)CN1C(=O)c1cc(CO)ccc1-n1nccn1 [Compound G-1, [3-[((2R,5R)-5-{[(5-Fluoropyridin-2-yl)oxy]methyl}-2-methylpiperidin-1-yl)carbonyl]-4-(2H-1,2,3-triazol-2-yl)phenyl]methanol]
84 | 37 | C[C@@H]1CC[C@@H](COc2ccc(F)cn2)CN1C(=O)c1cc(C(=O)O)ccc1-c1ncccn1 [Compound H-4, 3-[((2R,5R)-5-{[(5-fluoropyridin-2-yl)oxy]methyl}-2-methylpiperidin-1-yl)carbonyl]-4-pyrimidin-2-ylbenzoic acid]
30 | 2 | C[C@@H]1CC[C@@H](COc2ccc(F)cn2)CN1C(=O)c1cc(CO)ccc1-c1ncccn1 [Compound I-7, {3-[((2R,5R)-5-{[(5-Fluoropyridin-2-yl)oxy]methyl}-2-methylpiperidin-1-yl)carbonyl]-4-pyrimidin-2-ylphenyl}methanol]
